{"source": "patent US6492428B1", "about": "“Compounds having MIF antagonist activity” (The Picower Institute for Medical Research, priority 2000, dated 2002)", "key": {"human MIF [1]": {"target": "T1, human MIF (Homo sapiens, UniProt P14174)", "T1 construct": "made in house; host or cells: E. coli", "T1 sequence (P14174 2-115 limits assumed)": "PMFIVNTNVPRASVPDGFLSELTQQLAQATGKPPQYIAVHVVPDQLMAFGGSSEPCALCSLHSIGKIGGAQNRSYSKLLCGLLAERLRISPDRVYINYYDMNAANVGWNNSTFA", "test": "MIF dopachrome tautomerase enzyme inhibition assay", "type": "biochemical", "settings": "for IC50: MIF 0.7 μg/ml treated 5 minutes, dopachrome methyl ester (1) substrate; for MIF enzyme inhibition activity (in words): dopachrome tautomerase assay; for effect on MIF enzymatic activity at doses equimolar to MIF monomer: higher MIF concentrations (approximately 0.1 mg/ml and above); for inhibition at 200 µM: read-out: % inhibition at 200 μM"}, "human MIF [2]": {"target": "T1, human MIF", "test": "MIF tautomerase inhibition in the presence of fetal bovine serum", "type": "biochemical"}, "L6 rat myoblasts": {"tested_on": "L6 rat myoblasts", "test": "Fructose-2,6-bisphosphate (F2,6BP) induction assay", "type": "cell-based", "settings": "for induction of F2,6BP production (in words): MIF conjugated with compound, 10 ng/ml; for F2,6BP production: murine MIF 10 ng/ml, untreated or pretreated (conjugated) with compound, control=100%"}, "human MIF [3]": {"target": "T1, human MIF", "test": "Covalent enzyme modification (SDS-PAGE, MALDI MS, dialysis/gel filtration)"}, "recombinant mouse MIF": {"target": "recombinant mouse MIF (Mus musculus, UniProt P34884)", "test": "Tautomerase enzyme inactivation of murine MIF before the bioassay"}, "NIH/3T3 cells": {"tested_on": "NIH/3T3 cells", "test": "MIF-induced arachidonic acid release", "type": "cell-based", "settings": "cells labeled with 1 μM [14C]-arachidonic acid", "procedure": "NIH/3T3 cells were labeled with 1 μM [^14C]-arachidonic acid. After overnight culture, the cells were washed extensively with PBS and then the appropriate samples of MIF or MIF-NAPQI (4) conjugate were added in duplicate. The release of arachidonic acid into the culture medium was then measured.\nThe effect of MIF-NAPQI (4) conjugate on arachidonic acid release was tested by adding equivalent amounts of either MIF or MIF-NAPQI (4) conjugate to NIH3/3T3 cell cultures that had been pre-equilibrated with radioactive arachidonate, followed by the measurement of arachidonic acid release by scintillation counting. Briefly, NIH/3T3 fibroblasts were labeled with 1 μM [^14C]-arachidonic acid. After overnight culture, the cells were washed extensively with PBS, and the appropriate samples of MIF or MIF-NAPQI (4) conjugate were added in duplicate. The release of arachidonic acid into medium was then measured as described previously (Mitchell et al., J. Biol. Chem., 274:18100-18106, 1999)."}, "anti-MIF antibodies": {"tested_on": "anti-MIF antibodies", "test": "Cross-reactivity with anti-MIF antibodies (ELISA)", "type": "binding", "settings": "for recognition by anti-MIF antibodies (in words): MIF incubated with NAPQI (4) versus unmodified MIF", "procedure": "FIG. 7 illustrates the loss of immunological crossreactivity with anti-MIF antibodies following incubation of MIF with NAPQI (4).\n(iii) Cross-reactivity with anti-MIF antibodies. […] Without being bound by mechanism, and in view of the lack of bioactivity of the MIF-NAPQI (4) conjugate in the above arachidonic acid release and F2,6BP induction assays, it is likely that NAPQI (4) conjugation induces distortion of the MIF peptide conformation. This distortion also renders the MIF-NAPQI (a) (4) conjugate non-crossreactive with anti-MIF Mab.\nThe presence of such structural changes was further explored by characterizing the binding of additional MIF-specific antibodies (Picower Institute clones XIV. 14.3, III.D.9 and XIV. 15.5, which differ in their epitope recognition and activity to inhibit biologically active MIF), using a standard ELISA technique. In a standardized sandwich ELISA specific for MIF Meinhardt et al., Endocrinology, 137:5090-5095, 1996), an equivalent amount of MIF-NAPQI (4) conjugate (as indicated by protein concentration) was recognized 7-fold less than purified recombinant MIF that had not been exposed to NAPQI (4) (FIG. 7). Again, without being bound by mechanism, this loss of cross-reactivity of MIF-NAPQI (4) was most likely due to remote structural changes in MIF induced by covalent attachment of NAPQI (4). These structural changes might, in turn, account for the lack of bioactivities of MIF-NAPQI (4) and MIF-N-acetyl-3-hydroxy-p-benzoquinone imine (6) conjugates in the F2,6BP induction assay, and for the lack of bioactivity of MIF-NAPQI (4) conjugate in the arachidonic acid release assay."}}, "note": "“Also recorded” adds a separate entry of the source. Where two headings read alike, the source gives them in different places.", "data": [{"molecule": "CC(=O)N=C1C(C)=CC(=O)C=C1C", "note": "[Compound 9]", "values": [{"measurement": "IC50", "setting": "human MIF [1]", "value": 200, "unit": "µM"}]}, {"molecule": "COC1=CC(=NC(C)=O)C=CC1=O", "note": "[Compound 11]", "values": [{"measurement": "IC50", "setting": "human MIF [1]", "value": 25, "unit": "µM"}]}, {"molecule": "CC(=O)N=C1C=C(C)C(=O)C(C)=C1", "note": "[Compound 8]", "values": [{"measurement": "IC50", "setting": "human MIF [1]", "value": 120, "unit": "µM"}]}, {"molecule": "CCN1C(=O)C=CC1=O", "note": "[Compound 18, N-ethylmaleimide, reference compound]", "values": [{"measurement": "MIF enzyme inhibition activity (in words)", "setting": "human MIF [1]", "value": "No inhibitory activity"}, {"measurement": "inhibition at 500 µM", "setting": "human MIF [1]; read-out: % inhibition at 500 μM", "value": 0, "unit": "%"}]}, {"molecule": "O=C(O)/C=C/C1=CC(=O)C(=O)C=C1", "note": "[Compound 16]", "values": [{"measurement": "IC50", "setting": "human MIF [1]", "value": 0.3, "unit": "µM"}, {"measurement": "MIF enzyme inhibition activity (in words)", "setting": "human MIF [1]", "value": "sub-micromolar"}, {"measurement": "effect on MIF enzymatic activity at doses equimolar to MIF monomer", "setting": "human MIF [1]", "value": "virtually eliminated"}]}, {"molecule": "CC(=O)N=C1C=CC(=O)C=C1", "note": "[Compound 4, N-Acetyl-p-benzoquinone imine]", "values": [{"measurement": "inhibition of enzymatic activity", "setting": "human MIF [1]", "value": 69, "unit": "%"}, {"measurement": "MIF enzyme inhibition activity (in words)", "setting": "human MIF [1]", "value": "potent inhibitor"}, {"measurement": "inhibition at 49.5 µM", "setting": "human MIF [1]; read-out: enzyme inhibition", "value": 37, "unit": "%"}, {"measurement": "inhibition at 190 µM", "setting": "human MIF [1]; read-out: enzyme inhibition", "value": 94, "unit": "%"}, {"measurement": "inhibition at 500 µM", "setting": "human MIF [1]; read-out: enzyme inhibition", "value": 100, "unit": "%"}, {"measurement": "fetal bovine serum concentration at which loss in inhibitory activity became detectable", "setting": "human MIF [2]; MIF 0.72 μg/ml, compound 0.2 mM", "value": 25, "unit": "%"}, {"measurement": "inhibition of MIF in the presence of serum proteins (in words)", "setting": "human MIF [2]; MIF 0.72 μg/ml, compound 0.2 mM, 20 minutes", "value": "occurred even in the presence of serum proteins"}, {"measurement": "inhibition at 200 µM", "setting": "human MIF [2]; read-out: residual inhibitory activity", "value": 31, "unit": "%"}, {"measurement": "induction of F2,6BP production (in words)", "setting": "L6 rat myoblasts", "value": "fail to induce"}, {"measurement": "F2,6BP production", "setting": "L6 rat myoblasts", "value": "94 % of control"}, {"measurement": "restoration of enzymatic activity by dialyzing or gel filtering inactivated MIF", "setting": "human MIF [3]; MIF inactivated with compound, data not shown", "value": "not possible to restore enzymatic activity"}, {"measurement": "chemical modification of MIF (in words)", "setting": "human MIF [3]; SDS-PAGE and MALDI mass spectra of treated MIF", "value": "stable, covalent conjugates"}, {"measurement": "inhibition of enzyme activity / enzyme inactivation", "setting": "recombinant mouse MIF; mouse MIF pretreated with 167 μM compound", "value": 96, "unit": "%"}, {"measurement": "inhibition at 167 µM", "setting": "recombinant mouse MIF; read-out: inhibition of enzyme activity / enzyme inactivation, mouse MIF pretreated with 167 μM compound", "value": 98, "unit": "%"}]}, {"molecule": "O=C(O)c1ccc(O)c(O)c1", "note": "[Compound 13]", "values": [{"measurement": "MIF enzyme inhibition activity (in words)", "setting": "human MIF [1]", "value": "little, if any"}, {"measurement": "inhibition at 200 µM", "setting": "human MIF [1]", "value": 24, "unit": "%"}]}, {"molecule": "COc1cc(NC(C)=O)ccc1O", "note": "[Compound 10]", "values": [{"measurement": "MIF enzyme inhibition activity (in words)", "setting": "human MIF [1]", "value": "little, if any"}, {"measurement": "inhibition at 200 µM", "setting": "human MIF [1]; 200 μM compound, MIF 0.7 μg/ml, 5 minutes", "value": 0, "unit": "%"}]}, {"molecule": "CC(=O)N=C1C=CC(=O)C(C)=C1", "note": "[Compound 7]", "values": [{"measurement": "IC50", "setting": "human MIF [1]", "value": 35, "unit": "µM"}]}, {"molecule": "O=C(O)C1=CC(=O)C(=O)C=C1", "note": "[Compound 14]", "values": [{"measurement": "IC50", "setting": "human MIF [1]", "value": 4, "unit": "µM"}]}, {"molecule": "CC(=O)N=C1C=CC(=O)C(O)=C1", "note": "[Compound 6, N-acetyl-3-hydroxy-p-benzoquinone imine]", "values": [{"measurement": "IC50", "setting": "human MIF [1]", "value": 0.7, "unit": "µM"}, {"measurement": "enzyme activity lost", "setting": "human MIF [1]; MIF 2.8 μM (0.1 mg/ml, 8.4 μM monomer), compound at 7 μM (0.83 equivalents based on monomer)", "value": 93, "unit": "%"}, {"measurement": "enzyme activity lost (in words)", "setting": "human MIF [1]; MIF 0.1 mg/ml, 1.7 equivalents/monomer", "value": "All"}, {"measurement": "MIF enzyme inhibition activity (in words)", "setting": "human MIF [1]", "value": "potent inhibitors; also recorded: sub-micromolar"}, {"measurement": "effect on MIF enzymatic activity at doses equimolar to MIF monomer", "setting": "human MIF [1]", "value": "virtually eliminated"}, {"measurement": "more potent than dihydroquinone-like analog 5", "setting": "human MIF [1]; ratio of IC50 values versus compound 5", "value": "more than 715 fold"}, {"measurement": "induction of F2,6BP production (in words)", "setting": "L6 rat myoblasts", "value": "fail to induce"}, {"measurement": "F2,6BP production", "setting": "L6 rat myoblasts", "value": "105 % of control"}]}, {"molecule": "O=C(O)/C=C/c1ccc(O)c(O)c1", "note": "[Compound 15]", "values": [{"measurement": "MIF enzyme inhibition activity (in words)", "setting": "human MIF [1]", "value": "little, if any"}]}, {"molecule": "iodoacetamide [Compound 17, reference compound]", "values": [{"measurement": "% inhibition at 500 μM", "setting": "human MIF [1]; 500 μM compound, MIF 0.7 μg/ml, 5 minutes", "value": 0, "unit": "% inhibition at 500 μM"}, {"measurement": "MIF enzyme inhibition activity (in words)", "setting": "human MIF [1]", "value": "No inhibitory activity"}]}, {"molecule": "CC(=O)Nc1ccc(O)cc1", "note": "[Compound 3, acetaminophen, reference compound]", "values": [{"measurement": "IC50", "setting": "human MIF [1]", "value": 10000, "unit": "µM"}]}, {"molecule": "CC(=O)Nc1ccc(O)c(O)c1", "note": "[Compound 5]", "values": [{"measurement": "IC50", "setting": "human MIF [1]", "value": 500, "unit": "µM"}, {"measurement": "MIF enzyme inhibition activity (in words)", "setting": "human MIF [1]", "value": "little, if any"}]}, {"molecule": "MIF-NAPQI (4) conjugate: stable covalent conjugate formed when MIF is treated with NAPQI (4) (conjugate, UniProt P14174 2-115, looked up, covalent NAPQI adduct) Macrophage migration …: PMFIVNTNVPRASVPDGFLSELTQQLAQATGKPPQYIAVHVVPDQLMAFGGSSEPCALCSLHSIGKIGGAQNRSYSKLLCGLLAERLRISPDRVYINYYDMNAANVGWNNSTFA", "values": [{"measurement": "induction of F2,6BP production (in words)", "setting": "L6 rat myoblasts", "value": "failed to induce"}, {"measurement": "induction of arachidonic acid release (in words)", "setting": "NIH/3T3 cells", "value": "did not induce; also recorded: does not induce"}, {"measurement": "arachidonic acid released into culture supernatant relative to cultures treated with MIF", "setting": "NIH/3T3 cells; equivalent amounts of MIF or conjugate", "value": "less than 1/10"}, {"measurement": "recognition by anti-MIF antibodies (in words)", "setting": "anti-MIF antibodies", "value": "fail to recognize"}, {"measurement": "recognition by anti-MIF antibodies (in words)", "setting": "anti-MIF antibodies; listed as MIF-NAPQI conjugate", "value": "significantly less"}, {"measurement": "recognition in sandwich ELISA, less than unmodified recombinant MIF", "setting": "anti-MIF antibodies; equivalent amount by protein concentration, standardized sandwich ELISA specific for MIF", "value": 7, "unit": "fold"}]}]}
